Laboratory results as given in US20160213684A1, “SOLID DISPERSION OF A SELECTIVE MODULATOR OF THE PROGESTERONE RECEPTOR” (LABORATOIRE HRA-PHARMA, priority 2012, published 2016).

How the values were obtained:
[1] = in vitro dissolution test (paddle dissolution device, hard gelatin capsule with 30 mg UPA); format: physicochemical; settings: for Percentages of UPA released, expressed relative to the initial amount of UPA contained per capsule: 900 ml medium at gastric pH, 0.1% SDS, 37°C, 50 rpm, mean of 3 experiments
Method: The in vitro dissolution test can be carried out using any commercially available dissolution device comprising paddles. Example 1 hereinafter presents implementing conditions for determining the in vitro dissolution rate of a solid dispersion according to the invention. Briefly, an amount of solid dispersion representing 30 mg of active ingredient is placed in a gelatin capsule. This gel capsule is then placed in 900 ml of a medium buffered at gastric pH, comprising 0.1% of SDS, at 37±0.5° C., and subjected to stirring at 50 revolutions per minute (rpm) (speed of rotation of the paddles of the dissolution device). The dissolution of the active ingredient in the medium can be monitored by spectrophotometry, preferably at the maximum wavelength of absorbance. A gastric pH is typically a pH of 1 to 3.
For each solid dispersion obtained by means of the “solvent evaporation” method (§1.b) above), hard gelatin capsules containing an amount of solid dispersion corresponding to 30 mg of UPA per capsule were prepared.
The dissolution profiles were obtained as follows:
Each capsule containing a solid dispersion was placed in a bowl of the paddle dissolution device containing 900 ml of a dissolution medium. The dissolution medium is an aqueous solution buffered at gastric pH and comprising 0.1% by weight of SDS. The conditions for carrying out the in vitro dissolutions are the following: • Paddle rotation speed: 50 revolutions per minute (rpm); • Temperature: 37° C.±0.5° C.
The dissolution of the UPA was monitored by spectrophotometry.
By way of control experiment, a gelatin capsule containing 30 mg of micronized ulipristal acetate was used. For each solid dispersion evaluated, the dissolution experiment was reproduced 3 times.

[2] = single dose of 30 mg, within 120 hours following unprotected or poorly protected sexual intercourse; cited from earlier work
uterine fibromas = settings: chronic administration, 5 mg or 10 mg per day; cited from earlier work

Structure (SMILES): CC(=O)O[C@]1(C(C)=O)CCC2C3CCC4=CC(=O)CCC4=C3[C@@H](c3ccc(N(C)C)cc3)C[C@@]21C (stereo partly drawn) [Micronized UPA, 17α-acetoxy-11β-[4-(N,N-dimethylamino)phenyl]-19-norpregna-4,9-diene-3,20-dione]
- percentage of ulipristal acetate released into the medium ([1]; t=20 min as stated in the text, capsule): approximately 42%
- Percentages of UPA released, expressed relative to the initial amount of UPA contained per capsule ([1]; time 0 min): 0%
- Percentages of UPA released, expressed relative to the initial amount of UPA contained per capsule ([1]; time 1 min): 0.23%
- Percentages of UPA released, expressed relative to the initial amount of UPA contained per capsule ([1]; time 5 min): 5.69%
- Percentages of UPA released, expressed relative to the initial amount of UPA contained per capsule ([1]; time 7.5 min): 15.28%
- Percentages of UPA released, expressed relative to the initial amount of UPA contained per capsule ([1]; time 10 min): 21.73%
- Percentages of UPA released, expressed relative to the initial amount of UPA contained per capsule ([1]; time 15 min): 29.46%
- Percentages of UPA released, expressed relative to the initial amount of UPA contained per capsule ([1]; time 20 min): 35.2%
- Percentages of UPA released, expressed relative to the initial amount of UPA contained per capsule ([1]; time 30 min): 42.14%
- Percentages of UPA released, expressed relative to the initial amount of UPA contained per capsule ([1]; time 45 min): 49.98%
- Percentages of UPA released, expressed relative to the initial amount of UPA contained per capsule ([1]; time 60 min): 55.62%
- prevention of unwanted pregnancy [2]: makes it possible to prevent an unwanted pregnancy
- symptoms associated with uterine fibromas (uterine fibromas): significantly reduce the symptoms associated with uterine fibromas
- therapeutic benefit versus the reference treatment leuprolide acetate (uterine fibromas): greater than that of the reference treatment
